Reference: patent US10597388B2, “Pyridazinone herbicides” (FMC CORPORATION, priority 2014, dated 2020)

Tests used:
Assay in all cases: Test D controlled growth environment herbicide test, pre- and postemergence
Assay type in all cases: in vivo
[1] = tested on: barley, winter (winter barley, Hordeum vulgare)
Outline: (§1)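 Pre-emergence: seeds sown in silt loam soil were sprayed with compound in a non-phytotoxic solvent mix containing surfactant. Post-emergence: plants at 2 to 18 cm (1- to 4-leaf stage) in peat moss/vermiculite medium got the same formulation. Visual 0–100 rating versus controls after 14 to 21 d.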

[2] = tested on: mustard, wild (wild mustard, Sinapis arvensis)
Outline: as §1

[3] = tested on: canarygrass (Phalaris minor)
Outline: as §1

[4] = tested on: wheat, winter (winter wheat, Triticum aestivum)
Outline: as §1

[5] = tested on: chickweed (common chickweed, Stellaria media)
Outline: as §1

[6] = tested on: barley, spring (spring barley, Hordeum vulgare)
Outline: as §1

[7] = tested on: bluegrass (annual bluegrass, Poa annua)
Outline: as §1

[8] = tested on: radish, wild (wild radish, Raphanus raphanistrum)
Outline: as §1

[9] = tested on: ryegrass, Italian (Italian ryegrass, Lolium multiflorum)
Outline: as §1

[10] = tested on: deadnettle (henbit deadnettle, Lamium amplexicaule)
Outline: as §1

[11] = tested on: windgrass (Apera spica-venti)
Outline: as §1

[12] = tested on: foxtail, green (green foxtail, Setaria viridis)
Outline: as §1

[13] = tested on: field poppy (Papaver rhoeas)
Outline: as §1

[14] = Postemergence, 31 g ai/ha, scale 0 to 100 (0 no effect, 100 complete control)
[15] = Postemergence, 125 g ai/ha, visual rating on scale 0 (no effect) to 100 (complete control), 14 to 21 d
[16] = Postemergence, 250 g ai/ha, scale 0 to 100 (0 no effect, 100 complete control)
[17] = Preemergence, 62 g ai/ha, scale 0 to 100 (0 no effect, 100 complete control)
[18] = Preemergence, 125 g ai/ha, scale 0 to 100 (0 no effect, 100 complete control)
[19] = Preemergence, 250 g ai/ha, scale 0 to 100 (0 no effect, 100 complete control)
[20] = postemergence, 62 g ai/ha, scale 0 to 100, 0 no effect, 100 complete control

In the case of `Cc1nn(C)c(=O)c(-c2c(C)sc3ccc(Cl)cc23)c1O` [Compound 104], the “Barley, Winter plant response rating” value [1, 14] is reported as 0, the “Plant response rating, Barley, Winter” value [1, 15] is reported as 10 and the “Plant response rating, Barley, Winter” value [1, 16] is reported as 15. For the same molecule, the “Plant response rating (scale of 0 to 100), Barley, Winter” value ([1]; Preemergence, 31 g ai/ha) was 0, the “Plant response rating, Barley, Winter” value [1, 17] was 0 and the “Plant response rating, Barley, Winter” value [1, 18] was 10. For the same molecule, the “Plant response rating, Barley, Winter” value [1, 19] was 20, the “Plant response rating, Barley, Winter” value [1, 20] was 10 and the “Mustard, Wild plant response rating” value [2, 14] was 70. The “Plant response rating, Mustard, Wild” value [2, 15] was 85, the “Plant response rating, Mustard, Wild” value [2, 16] was 90 and the “Plant response rating (scale of 0 to 100), Mustard, Wild” value ([2]; Preemergence, 31 g ai/ha) was 10. The “Plant response rating (scale of 0 to 100), Mustard, Wild” value ([2]; Preemergence, 62 g ai/ha) was 70, the “Plant response rating, Mustard, Wild” value [2, 18] was 75 and the “Plant response rating, Mustard, Wild” value [2, 19] was 95. The “Plant response rating, Mustard, Wild” value [2, 20] was 75, the “Canarygrass plant response rating” value [3, 14] was 45 and the “Plant response rating, Canarygrass” value [3, 15] was 80. The “Plant response rating, Canarygrass” value [3, 16] was 85, the “Plant response rating (scale of 0 to 100), Canarygrass” value ([3]; Preemergence, 31 g ai/ha) was 65 and the “Plant response rating (scale of 0 to 100), Canarygrass” value ([3]; Preemergence, 62 g ai/ha) was 85. The “Plant response rating, Canarygrass” value [3, 18] was 95, the “Plant response rating, Canarygrass” value [3, 19] was 100 and the “Plant response rating, Canarygrass” value [3, 20] was 65. For the same molecule, the “Wheat, Winter plant response rating” value [4, 14] was 5, the “Plant response rating, Wheat, Winter” value [4, 15] was 20 and the “Plant response rating, Wheat, Winter” value [4, 16] was 25. The “Plant response rating (scale of 0 to 100), Wheat, Winter” value ([4]; Preemergence, 31 g ai/ha) was 0, the “Plant response rating (scale of 0 to 100), Wheat, Winter” value ([4]; Preemergence, 62 g ai/ha) was 0 and the “Plant response rating, Wheat, Winter” value [4, 18] was 5. For the same molecule, the “Plant response rating, Wheat, Winter” value [4, 19] was 15, the “Plant response rating, Wheat, Winter” value [4, 20] was 15 and the “Chickweed plant response rating” value [5, 14] was 95. For the same molecule, the “Plant response rating, Chickweed” value [5, 15] was 100, the “Plant response rating, Chickweed” value [5, 16] was 100 and the “Plant response rating (scale of 0 to 100), Chickweed” value ([5]; Preemergence, 31 g ai/ha) was 100. For the same molecule, the “Plant response rating (scale of 0 to 100), Chickweed” value ([5]; Preemergence, 62 g ai/ha) was 100, the “Plant response rating, Chickweed” value [5, 18] was 95 and the “Plant response rating, Chickweed” value [5, 19] was 100. The “Plant response rating, Chickweed” value [5, 20] was 100, the “Barley, Spring plant response rating” value [6, 14] was 0 and the “Plant response rating, Barley, Spring” value [6, 15] was 10. For the same molecule, the “Plant response rating, Barley, Spring” value [6, 16] was 15, the “Plant response rating (scale of 0 to 100), Barley, Spring” value ([6]; Preemergence, 31 g ai/ha) was 0 and the “Plant response rating, Barley, Spring” value [6, 17] was 0. The “Plant response rating, Barley, Spring” value [6, 18] was 5, the “Plant response rating, Barley, Spring” value [6, 19] was 15 and the “Plant response rating, Barley, Spring” value [6, 20] was 10. The “Bluegrass plant response rating” value [7, 14] was 10, the “Plant response rating, Bluegrass” value [7, 15] was 20 and the “Plant response rating, Bluegrass” value [7, 16] was 30. For the same molecule, the “Plant response rating (scale of 0 to 100), Bluegrass” value ([7]; Preemergence, 31 g ai/ha) was 35, the “Plant response rating, Bluegrass” value [7, 17] was 35 and the “Plant response rating, Bluegrass” value [7, 18] was 70. The “Plant response rating, Bluegrass” value [7, 19] was 75, the “Plant response rating, Bluegrass” value [7, 20] was 10 and the “Radish, Wild plant response rating” value [8, 14] was 70. For the same molecule, the “Plant response rating, Radish, Wild” value [8, 15] was 90, the “Plant response rating, Radish, Wild” value [8, 16] was 95 and the “Plant response rating (scale of 0 to 100), Radish, Wild” value ([8]; Preemergence, 31 g ai/ha) was 95. For the same molecule, the “Plant response rating (scale of 0 to 100), Radish, Wild” value ([8]; Preemergence, 62 g ai/ha) was 100, the “Plant response rating, Radish, Wild” value [8, 18] was 95 and the “Plant response rating, Radish, Wild” value [8, 19] was 100. The “Plant response rating, Radish, Wild” value [8, 20] was 75, the “Ryegrass, Italian plant response rating” value [9, 14] was 90 and the “Plant response rating, Ryegrass, Italian” value [9, 15] was 95. The “Plant response rating, Ryegrass, Italian” value [9, 16] was 95, the “Plant response rating (scale of 0 to 100), Ryegrass, Italian” value ([9]; Preemergence, 31 g ai/ha) was 100 and the “Plant response rating (scale of 0 to 100), Ryegrass, Italian” value ([9]; Preemergence, 62 g ai/ha) was 100. For the same molecule, the “Plant response rating, Ryegrass, Italian” value [9, 18] was 100, the “Plant response rating, Ryegrass, Italian” value [9, 19] was 100 and the “Plant response rating, Ryegrass, Italian” value [9, 20] was 95. The “Deadnettle plant response rating” value [10, 14] was 45, the “Plant response rating, Deadnettle” value [10, 15] was 70 and the “Plant response rating, Deadnettle” value [10, 16] was 85. For the same molecule, the “Plant response rating (scale of 0 to 100), Deadnettle” value ([10]; Preemergence, 31 g ai/ha) was 65, the “Plant response rating (scale of 0 to 100), Deadnettle” value ([10]; Preemergence, 62 g ai/ha) was 80 and the “Plant response rating, Deadnettle” value [10, 18] was 80. For the same molecule, the “Plant response rating, Deadnettle” value [10, 19] was 100, the “Plant response rating, Deadnettle” value [10, 20] was 50 and the “Windgrass plant response rating” value [11, 14] was 55. The “Plant response rating, Windgrass” value [11, 15] was 85, the “Plant response rating, Windgrass” value [11, 16] was 85 and the “Plant response rating (scale of 0 to 100), Windgrass” value ([11]; Preemergence, 31 g ai/ha) was 70. For the same molecule, the “Plant response rating (scale of 0 to 100), Windgrass” value ([11]; Preemergence, 62 g ai/ha) was 75, the “Plant response rating, Windgrass” value [11, 18] was 80 and the “Plant response rating, Windgrass” value [11, 19] was 100. For the same molecule, the “Plant response rating, Windgrass” value [11, 20] was 75, the “Foxtail, Green plant response rating” value [12, 14] was 30 and the “Plant response rating, Foxtail, Green” value [12, 15] was 85. The “Plant response rating, Foxtail, Green” value [12, 16] was 90, the “Plant response rating (scale of 0 to 100), Foxtail, Green” value ([12]; Preemergence, 31 g ai/ha) was 20 and the “Plant response rating (scale of 0 to 100), Foxtail, Green” value ([12]; Preemergence, 62 g ai/ha) was 70. For the same molecule, the “Plant response rating, Foxtail, Green” value [12, 18] was 100, the “Plant response rating, Foxtail, Green” value [12, 19] was 100 and the “Plant response rating, Foxtail, Green” value [12, 20] was 70. The “Field Poppy plant response rating” value [13, 14] was 15, the “Plant response rating, Field Poppy” value [13, 15] was 75 and the “Plant response rating, Field Poppy” value [13, 16] was 80. For the same molecule, the “Plant response rating (scale of 0 to 100), Field Poppy” value ([13]; Preemergence, 31 g ai/ha) was 0, the “Plant response rating (scale of 0 to 100), Field Poppy” value ([13]; Preemergence, 62 g ai/ha) was 100 and the “Plant response rating, Field Poppy” value [13, 18] was 100. For the same molecule, the “Plant response rating, Field Poppy” value [13, 19] was 100 and the “Plant response rating, Field Poppy” value [13, 20] was 65.
